Test system: isolated ventricular myocytes
Experiment: Sarcomere shortening (contractility) in isolated ventricular myocytes
Format: cell-based, rabbit
Experimental: […] Isoproterenol, a potent β-Adrenergic agonist, can produce large increases in cardiac contraction, calcium transient amplitude, and the rates of relaxation (acceleration of relaxation or lusitropic effect). The effects of isoproterenol are then antagonized with different concentrations of a compound of the present invention.
Cardiac myocytes were digested from healthy white New Zealand male rabbits (3-5 lbs), with enzymatic digestion. Briefly, each animal is anesthetized with ketamine (50 mg/kg) and xylazine (6 mg/kg)-IM injection in hind limb. Once the animal was sedated (˜10-15 min), 0.1-0.3 ml of pentobarbital was injected into the ear vein. The heart was exposed by a cut just below the rib-cage and bilateral thoracotomy and removed rapidly ensuring that aorta remains intact. The heart was immediately placed in oxygenated NT with Ca^2+ placed on ice for rinsing the blood out, cleared from vessels and pericardium, cannulated and maintained at 37° C. The heart was retrogradedly perfused and tissue digested with collagenase and protease. Digested myocytes were subsequently stored in 0.1 mM Ca^2+ normal tyrodes for further analyses. Sarcomere length changes upon treatment with test compounds were recorded at 37° C. in the presence of 2 mM calcium and analyzed with an IonOptix system. Sarcomere length data was acquired for each myocyte over an average of 10 beats duration, at pacing rates of 1, 2, and 3 Hz. Basal percent sarcomere shortening and length-frequency relation of each myocyte was evaluated, and serve as a measure of cellular viability.
In vitro studies were performed using rabbit ventricular tissue, to examine the effects of Compounds 25 and 8c on myocyte contractility. New Zealand male rabbits (1.5-2.5 kg) were anesthetized with ketamine (50 mg/kg) and xylazine (6 mg/kg)-IM. The heart was exposed and removed rapidly to ensure that the aorta remained intact. The ventricular tissue was digested enzymatically. Sarcomere shortening was measured in the presence of 2 mM calcium at 37° C. using an IonOptix system; reported values were at 2 Hz pacing frequency.

## O=C1CCC(c2ccc(OCCNCC(O)COc3cccc4[nH]c5ccccc5c34)c(Cl)c2)=NN1 (racemic) [Compound 25, 6-(4-{2-[3-(9H-Carbazol-4-yloxy)-2-hydroxy-propylamino]-ethoxy}-3-chloro-phenyl)-4,5-dihydro-2H-pyridazin-3-one]
0.1 μM isoproterenol
  blocking of isoproterenol effect on myocyte contractility: blocking the effects of 0.1 μM isoproterenol
2 mM calcium, 37° C., 2 Hz pacing frequency
  contractility (sarcomere shortening) in isolated ventricular myocytes: increased contractility
